Data taken from publication PMC10746543, “Design principles for cyclin K molecular glue degraders” (Nature Chemical Biology, 2023).
Where “and” joins values, the source holds several entries; their conditions need not be identical. Identical values can stand only once. Like-named read-outs stand apart in the source and are kept apart here.

How the values were obtained:
CDK12–cyclin K and DDB1 = molecular target: T1, CDK12–cyclin K and DDB1 (Homo sapiens, UniProt Q16531+Q9NYV4, K965R); assay: TR-FRET ternary complex formation assay (compound titration); assay type: binding
T1 construct: His6–CDK12 (a.a. 713–1,052); full-length or beta-propeller B domain deletion (ΔBPB: a.a. 396–705 deleted) constructs of His6–DDB1ΔBPB, StrepII–Avi–DDB1, or His6–Spy–DDB1; made in house; host or cells: Trichoplusia ni High Five insect cells (baculovirus)
In short: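 Read-out used a 70 μs delay to cut background fluorescence; TR-FRET signal taken as the 520 nm/490 nm emission ratio.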

CDK2–cyclin A = molecular target: T2, CDK2–cyclin A (Homo sapiens, UniProt P24941); assay: Lanthascreen kinase binding assay, CDK2
T2 construct: purchased Thermo Fisher
Method: Lanthascreen experiments were performed using commercially available reagents (Thermo Fisher) and according to the manufacturer’s instructions.

CDK12 = molecular target: T3, CDK12 (Homo sapiens, UniProt Q16531+Q9NYV4); assay: Label-free quantitative mass spectrometry in MDA-MB-231 cells, CDK12; assay type: cell-based
T3 construct: endogenous in cells; host or cells: MDA-MB-231
In short: (§1)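 MDA-MB-231 cells treated 5 h with 1 µM cyclin K degrader or DMSO. Lysates digested with LysC and trypsin, then analysed by label-free diaPASEF LC-MS on a TimsTOF Pro2 with directDIA search and MS1 precursor quantification. Protein abundances scaled and analysed with limma.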

CDK13 = molecular target: T4, CDK13 (Homo sapiens, UniProt Q14004+Q16531); assay: Label-free quantitative mass spectrometry in MDA-MB-231 cells, CDK13; assay type: cell-based
T4 construct: endogenous in cells; host or cells: MDA-MB-231
In short: as §1

[1] = label-free quantitative MS, replicate values
[2] = normalised to DMSO = 1, replicate values

T1 sequence (Q9NYV4 713-1052 K965R): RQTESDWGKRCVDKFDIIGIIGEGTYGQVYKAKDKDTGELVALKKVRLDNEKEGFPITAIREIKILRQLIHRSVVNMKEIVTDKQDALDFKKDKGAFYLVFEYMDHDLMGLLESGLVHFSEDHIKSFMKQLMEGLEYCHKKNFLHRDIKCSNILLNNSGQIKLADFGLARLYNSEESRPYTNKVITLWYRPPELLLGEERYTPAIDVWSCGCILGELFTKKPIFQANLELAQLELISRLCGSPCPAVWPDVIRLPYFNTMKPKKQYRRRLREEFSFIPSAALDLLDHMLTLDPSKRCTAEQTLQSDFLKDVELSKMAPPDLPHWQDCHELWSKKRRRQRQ
T1 sequence (O75909 1-267 partner): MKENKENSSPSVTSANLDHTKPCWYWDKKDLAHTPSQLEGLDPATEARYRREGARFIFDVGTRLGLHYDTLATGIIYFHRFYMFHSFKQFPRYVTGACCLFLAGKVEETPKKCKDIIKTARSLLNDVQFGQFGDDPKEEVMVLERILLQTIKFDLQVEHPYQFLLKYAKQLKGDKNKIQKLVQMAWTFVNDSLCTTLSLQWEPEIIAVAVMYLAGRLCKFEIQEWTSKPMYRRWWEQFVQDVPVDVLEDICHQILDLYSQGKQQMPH
T1 sequence (Q16531 whole entry): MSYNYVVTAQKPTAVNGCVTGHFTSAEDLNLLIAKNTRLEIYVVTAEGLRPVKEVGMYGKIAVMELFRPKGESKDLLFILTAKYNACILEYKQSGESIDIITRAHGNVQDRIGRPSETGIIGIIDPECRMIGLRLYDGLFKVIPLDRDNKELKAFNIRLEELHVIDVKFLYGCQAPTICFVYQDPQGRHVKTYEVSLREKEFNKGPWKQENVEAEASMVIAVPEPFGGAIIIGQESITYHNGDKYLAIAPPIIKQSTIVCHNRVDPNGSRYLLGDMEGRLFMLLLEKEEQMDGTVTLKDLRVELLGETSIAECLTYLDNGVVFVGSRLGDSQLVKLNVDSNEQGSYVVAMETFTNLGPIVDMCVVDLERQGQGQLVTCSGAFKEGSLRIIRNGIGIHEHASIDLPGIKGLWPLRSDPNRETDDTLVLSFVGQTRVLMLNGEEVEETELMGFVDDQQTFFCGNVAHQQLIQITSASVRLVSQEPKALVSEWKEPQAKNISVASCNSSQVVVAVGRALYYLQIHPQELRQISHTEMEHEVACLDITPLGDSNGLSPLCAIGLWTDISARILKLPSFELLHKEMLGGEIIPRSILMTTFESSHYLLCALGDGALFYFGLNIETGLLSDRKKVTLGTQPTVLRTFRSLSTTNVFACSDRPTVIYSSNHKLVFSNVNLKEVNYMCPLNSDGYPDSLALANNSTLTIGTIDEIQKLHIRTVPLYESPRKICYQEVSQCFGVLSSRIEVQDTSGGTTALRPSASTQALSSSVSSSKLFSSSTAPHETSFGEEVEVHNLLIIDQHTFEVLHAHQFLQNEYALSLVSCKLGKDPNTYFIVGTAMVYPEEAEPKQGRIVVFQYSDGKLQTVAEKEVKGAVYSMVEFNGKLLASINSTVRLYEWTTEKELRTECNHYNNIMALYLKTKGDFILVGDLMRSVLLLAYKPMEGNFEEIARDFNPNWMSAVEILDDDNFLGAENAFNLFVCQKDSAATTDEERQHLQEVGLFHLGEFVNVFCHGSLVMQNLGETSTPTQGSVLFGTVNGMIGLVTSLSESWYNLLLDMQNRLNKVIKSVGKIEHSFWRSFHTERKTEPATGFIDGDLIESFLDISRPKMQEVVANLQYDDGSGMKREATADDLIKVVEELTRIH
T3 sequence (Q9NYV4 whole entry): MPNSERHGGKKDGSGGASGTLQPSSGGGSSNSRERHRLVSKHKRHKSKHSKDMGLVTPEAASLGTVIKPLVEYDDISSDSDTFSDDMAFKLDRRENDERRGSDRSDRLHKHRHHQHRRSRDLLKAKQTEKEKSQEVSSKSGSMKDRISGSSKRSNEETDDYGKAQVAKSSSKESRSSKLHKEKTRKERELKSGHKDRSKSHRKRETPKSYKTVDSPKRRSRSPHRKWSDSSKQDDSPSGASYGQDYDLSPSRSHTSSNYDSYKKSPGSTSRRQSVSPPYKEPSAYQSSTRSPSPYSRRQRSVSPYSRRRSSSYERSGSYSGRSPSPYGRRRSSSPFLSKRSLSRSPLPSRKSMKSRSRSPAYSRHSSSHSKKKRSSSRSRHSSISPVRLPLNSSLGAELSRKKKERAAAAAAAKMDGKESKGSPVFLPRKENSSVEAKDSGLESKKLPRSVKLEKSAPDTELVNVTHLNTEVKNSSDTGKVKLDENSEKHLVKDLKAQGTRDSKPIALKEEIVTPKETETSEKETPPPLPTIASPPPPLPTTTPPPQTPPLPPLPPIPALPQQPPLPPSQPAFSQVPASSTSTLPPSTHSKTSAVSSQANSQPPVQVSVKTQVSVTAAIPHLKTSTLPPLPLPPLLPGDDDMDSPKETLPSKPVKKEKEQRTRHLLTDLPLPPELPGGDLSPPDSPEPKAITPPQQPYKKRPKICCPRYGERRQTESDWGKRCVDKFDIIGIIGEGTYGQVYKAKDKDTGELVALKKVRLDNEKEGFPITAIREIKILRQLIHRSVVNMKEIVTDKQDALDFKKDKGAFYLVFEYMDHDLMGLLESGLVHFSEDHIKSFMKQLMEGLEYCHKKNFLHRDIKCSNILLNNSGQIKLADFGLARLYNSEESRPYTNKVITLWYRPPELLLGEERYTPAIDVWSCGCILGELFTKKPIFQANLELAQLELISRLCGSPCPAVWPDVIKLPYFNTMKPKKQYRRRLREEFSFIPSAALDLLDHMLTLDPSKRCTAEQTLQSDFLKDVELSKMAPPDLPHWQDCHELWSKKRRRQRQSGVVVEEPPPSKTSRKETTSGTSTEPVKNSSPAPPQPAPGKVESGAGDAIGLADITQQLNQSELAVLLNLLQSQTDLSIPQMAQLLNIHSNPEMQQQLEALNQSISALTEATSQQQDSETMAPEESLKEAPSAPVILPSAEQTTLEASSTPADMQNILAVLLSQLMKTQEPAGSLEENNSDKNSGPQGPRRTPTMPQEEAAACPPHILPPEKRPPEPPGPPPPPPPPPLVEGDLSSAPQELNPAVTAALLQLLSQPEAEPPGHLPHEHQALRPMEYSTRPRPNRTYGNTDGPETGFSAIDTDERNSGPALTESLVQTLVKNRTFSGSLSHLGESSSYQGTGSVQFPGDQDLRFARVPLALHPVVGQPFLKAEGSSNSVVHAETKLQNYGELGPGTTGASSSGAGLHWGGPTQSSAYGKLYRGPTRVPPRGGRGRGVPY
T3 sequence (O75909 whole entry partner): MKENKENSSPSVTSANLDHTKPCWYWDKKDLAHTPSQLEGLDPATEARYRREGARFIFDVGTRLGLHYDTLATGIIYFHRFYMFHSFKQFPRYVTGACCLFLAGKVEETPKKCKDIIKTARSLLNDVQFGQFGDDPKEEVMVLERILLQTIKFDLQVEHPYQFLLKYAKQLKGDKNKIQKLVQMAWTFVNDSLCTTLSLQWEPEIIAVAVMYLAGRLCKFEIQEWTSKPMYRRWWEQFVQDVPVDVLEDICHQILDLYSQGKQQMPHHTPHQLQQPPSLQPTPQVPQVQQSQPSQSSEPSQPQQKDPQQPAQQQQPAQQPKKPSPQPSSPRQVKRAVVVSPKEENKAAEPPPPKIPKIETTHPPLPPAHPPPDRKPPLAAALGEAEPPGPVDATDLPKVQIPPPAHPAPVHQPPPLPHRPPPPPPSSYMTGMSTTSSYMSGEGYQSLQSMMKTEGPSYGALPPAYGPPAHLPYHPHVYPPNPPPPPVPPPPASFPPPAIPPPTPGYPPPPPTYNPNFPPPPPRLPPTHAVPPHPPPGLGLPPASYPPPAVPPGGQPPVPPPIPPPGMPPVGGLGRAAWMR
T3 sequence (Q16531 2-1140 limits assumed): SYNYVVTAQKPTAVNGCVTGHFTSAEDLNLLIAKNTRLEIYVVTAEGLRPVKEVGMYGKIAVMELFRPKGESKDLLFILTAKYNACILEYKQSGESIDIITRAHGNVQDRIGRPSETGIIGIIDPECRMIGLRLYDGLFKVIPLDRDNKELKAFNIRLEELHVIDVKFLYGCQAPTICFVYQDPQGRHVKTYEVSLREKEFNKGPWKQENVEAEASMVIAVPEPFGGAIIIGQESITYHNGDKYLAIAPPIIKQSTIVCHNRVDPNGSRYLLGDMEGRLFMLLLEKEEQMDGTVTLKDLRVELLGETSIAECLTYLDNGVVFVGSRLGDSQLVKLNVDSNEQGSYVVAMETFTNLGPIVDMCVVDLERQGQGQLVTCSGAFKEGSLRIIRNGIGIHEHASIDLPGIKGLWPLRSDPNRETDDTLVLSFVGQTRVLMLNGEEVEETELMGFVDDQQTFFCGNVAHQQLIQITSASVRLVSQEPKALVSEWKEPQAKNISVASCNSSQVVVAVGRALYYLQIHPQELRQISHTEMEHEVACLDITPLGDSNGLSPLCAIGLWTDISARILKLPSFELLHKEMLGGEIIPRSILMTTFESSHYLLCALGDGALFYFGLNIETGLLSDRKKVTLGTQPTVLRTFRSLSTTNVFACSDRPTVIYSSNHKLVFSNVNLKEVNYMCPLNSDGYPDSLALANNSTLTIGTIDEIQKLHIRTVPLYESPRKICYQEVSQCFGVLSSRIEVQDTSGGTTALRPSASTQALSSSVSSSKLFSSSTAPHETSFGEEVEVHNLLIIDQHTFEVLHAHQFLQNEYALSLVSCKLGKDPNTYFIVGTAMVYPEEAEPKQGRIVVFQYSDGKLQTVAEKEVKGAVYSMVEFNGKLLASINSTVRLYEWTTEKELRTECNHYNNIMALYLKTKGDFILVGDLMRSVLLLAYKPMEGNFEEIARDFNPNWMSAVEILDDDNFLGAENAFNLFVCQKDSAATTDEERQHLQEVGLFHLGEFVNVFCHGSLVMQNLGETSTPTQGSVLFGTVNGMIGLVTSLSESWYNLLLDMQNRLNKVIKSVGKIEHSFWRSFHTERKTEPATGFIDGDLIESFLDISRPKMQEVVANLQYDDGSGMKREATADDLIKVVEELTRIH

For `Cn1cc(-n2cnc3c(NCc4nc5cc(Cl)c(Cl)cc5[nH]4)nc(N4CCOCC4)nc32)cn1` [SR-4835], the TR-FRET signal (CDK12–cyclin K and DDB1; compound concentration 0.468 nM) was 0.24 and 0.2487 and 0.176 and 0.1833 and 0.1905 and 0.1902, the “TR-FRET signal at compound concentration 0.468 nM” value (CDK12–cyclin K and DDB1; compound concentration 0.468 nM, raw replicate titration data) was 0.24 and 0.2487 and 0.176 and 0.1833 and 0.1905 and 0.1902 and the TR-FRET signal (CDK12–cyclin K and DDB1; compound concentration 2.16 nM) was 0.2823 and 0.3111 and 0.2192 and 0.2275 and 0.225 and 0.234. For the same compound, the “TR-FRET signal at compound concentration 2.16 nM” value (CDK12–cyclin K and DDB1; compound concentration 2.16 nM, raw replicate titration data) was 0.2823 and 0.3111 and 0.2192 and 0.2275 and 0.225 and 0.234, the TR-FRET signal (CDK12–cyclin K and DDB1; compound concentration 3.6 nM) was 0.3779 and 0.4354 and 0.3063 and 0.3176 and 0.3203 and 0.3168 and the “TR-FRET signal at compound concentration 3.6 nM” value (CDK12–cyclin K and DDB1; compound concentration 3.6 nM, raw replicate titration data) was 0.3779 and 0.4354 and 0.3063 and 0.3176 and 0.3203 and 0.3168. The TR-FRET signal (CDK12–cyclin K and DDB1; compound concentration 7.92001 nM) was 0.6106 and 0.7496 and 0.4912 and 0.5419 and 0.5567 and 0.5439, the “TR-FRET signal at compound concentration 7.92001 nM” value (CDK12–cyclin K and DDB1; compound concentration 7.92001 nM, raw replicate titration data) was 0.6106 and 0.7496 and 0.4912 and 0.5419 and 0.5567 and 0.5439 and the TR-FRET signal (CDK12–cyclin K and DDB1; compound concentration 15.84 nM) was 1.0796 and 1.304 and 0.9239 and 1.0376 and 1.022 and 1.028. The “TR-FRET signal at compound concentration 15.84 nM” value (CDK12–cyclin K and DDB1; compound concentration 15.84 nM, raw replicate titration data) was 1.0796 and 1.304 and 0.9239 and 1.0376 and 1.022 and 1.028, the TR-FRET signal (CDK12–cyclin K and DDB1; compound concentration 30.96 nM) was 1.682 and 1.792 and 1.613 and 1.69 and 1.622 and 1.648 and the “TR-FRET signal at compound concentration 30.96 nM” value (CDK12–cyclin K and DDB1; compound concentration 30.96 nM, raw replicate titration data) was 1.682 and 1.792 and 1.613 and 1.69 and 1.622 and 1.648. For the same compound, the TR-FRET signal (CDK12–cyclin K and DDB1; compound concentration 62.6401 nM) was 1.888 and 1.962 and 1.877 and 1.886 and 1.857 and 1.865, the “TR-FRET signal at compound concentration 62.6401 nM” value (CDK12–cyclin K and DDB1; compound concentration 62.6401 nM, raw replicate titration data) was 1.888 and 1.962 and 1.877 and 1.886 and 1.857 and 1.865 and the TR-FRET signal (CDK12–cyclin K and DDB1; compound concentration 125.28 nM) was 1.977 and 2.1 and 1.914 and 1.988 and 1.925 and 1.931. The “TR-FRET signal at compound concentration 125.28 nM” value (CDK12–cyclin K and DDB1; compound concentration 125.28 nM, raw replicate titration data) was 1.977 and 2.1 and 1.914 and 1.988 and 1.925 and 1.931, the TR-FRET signal (CDK12–cyclin K and DDB1; compound concentration 244.8 nM) was 2.037 and 2.154 and 1.951 and 1.963 and 1.955 and 1.942 and the “TR-FRET signal at compound concentration 244.8 nM” value (CDK12–cyclin K and DDB1; compound concentration 244.8 nM, raw replicate titration data) was 2.037 and 2.154 and 1.951 and 1.963 and 1.955 and 1.942. The TR-FRET signal (CDK12–cyclin K and DDB1; compound concentration 993.601 nM) was 2.0169 and 2.142 and 1.9225 and 1.946 and 1.977 and 1.949, the “TR-FRET signal at compound concentration 993.601 nM” value (CDK12–cyclin K and DDB1; compound concentration 993.601 nM, raw replicate titration data) was 2.0169 and 2.142 and 1.9225 and 1.946 and 1.977 and 1.949 and the TR-FRET signal (CDK12–cyclin K and DDB1; compound concentration 2001.6 nM) was 2.032 and 2.062 and 1.95 and 1.938 and 1.928 and 1.943. For the same compound, the “TR-FRET signal at compound concentration 2001.6 nM” value (CDK12–cyclin K and DDB1; compound concentration 2001.6 nM, raw replicate titration data) was 2.032 and 2.062 and 1.95 and 1.938 and 1.928 and 1.943, the “Lanthascreen signal, sheet CDK2” value (CDK2–cyclin A; Compound 0.038147 nM, raw replicates, experiment r13-r23) was 0.0127 and 0.01284 and the “Lanthascreen signal, sheet CDK2” value (CDK2–cyclin A; Compound 0.038147 nM, raw replicates, experiment r36-r46) was 0.01329 and 0.01256. For the same compound, the “Lanthascreen signal, sheet CDK2” value (CDK2–cyclin A; Compound 0.038147 nM, raw replicates, experiment r48-r58) was 0.01292 and 0.01236, the “Lanthascreen signal, sheet CDK2” value (CDK2–cyclin A; Compound 0.152588 nM, raw replicates, experiment r13-r23) was 0.01305 and 0.01264 and the “Lanthascreen signal, sheet CDK2” value (CDK2–cyclin A; Compound 0.152588 nM, raw replicates, experiment r36-r46) was 0.01299 and 0.01282. The “Lanthascreen signal, sheet CDK2” value (CDK2–cyclin A; Compound 0.152588 nM, raw replicates, experiment r48-r58) was 0.01645 and 0.0151, the “Lanthascreen signal, sheet CDK2” value (CDK2–cyclin A; Compound 0.610352 nM, raw replicates, experiment r13-r23) was 0.01296 and 0.01232 and the “Lanthascreen signal, sheet CDK2” value (CDK2–cyclin A; Compound 0.610352 nM, raw replicates, experiment r36-r46) was 0.01373 and 0.01242. The “Lanthascreen signal, sheet CDK2” value (CDK2–cyclin A; Compound 0.610352 nM, raw replicates, experiment r48-r58) was 0.01563 and 0.01504, the “Lanthascreen signal, sheet CDK2” value (CDK2–cyclin A; Compound 1.02544 nM, raw replicates, experiment r1-r11) was 0.01131 and 0.01009 and the “Lanthascreen signal, sheet CDK2” value (CDK2–cyclin A; Compound 3.15521 nM, raw replicates, experiment r1-r11) was 0.009228 and 0.009357. The “Lanthascreen signal, sheet CDK2” value (CDK2–cyclin A; Compound 4.57247 nM, experiment r25-r34) was 0.01614, the “Lanthascreen signal, sheet CDK2” value (CDK2–cyclin A; Compound 9.76563 nM, raw replicates, experiment r13-r23) was 0.01326 and 0.01312 and the “Lanthascreen signal, sheet CDK2” value (CDK2–cyclin A; Compound 9.76563 nM, raw replicates, experiment r36-r46) was 0.01252 and 0.01318. For the same compound, the “Lanthascreen signal, sheet CDK2” value (CDK2–cyclin A; Compound 9.76563 nM, raw replicates, experiment r48-r58) was 0.01463 and 0.01476, the “Lanthascreen signal, sheet CDK2” value (CDK2–cyclin A; Compound 9.76563 nM, raw replicates, experiment r60-r70) was 0.02088 and 0.02079 and 0.02078 and the “Lanthascreen signal, sheet CDK2” value (CDK2–cyclin A; Compound 13.7174 nM, experiment r25-r34) was 0.01619. For the same compound, the “Lanthascreen signal, sheet CDK2” value (CDK2–cyclin A; Compound 39.0625 nM, raw replicates, experiment r13-r23) was 0.01273 and 0.01299, the “Lanthascreen signal, sheet CDK2” value (CDK2–cyclin A; Compound 39.0625 nM, raw replicates, experiment r36-r46) was 0.01285 and 0.01213 and the “Lanthascreen signal, sheet CDK2” value (CDK2–cyclin A; Compound 39.0625 nM, raw replicates, experiment r48-r58) was 0.01551 and 0.01552. The “Lanthascreen signal, sheet CDK2” value (CDK2–cyclin A; Compound 39.0625 nM, raw replicates, experiment r60-r70) was 0.01951 and 0.02081 and 0.02075, the “Lanthascreen signal, sheet CDK2” value (CDK2–cyclin A; Compound 41.1523 nM, experiment r25-r34) was 0.01684 and the “Lanthascreen signal, sheet CDK2” value (CDK2–cyclin A; Compound 123.457 nM, experiment r25-r34) was 0.01665. For the same compound, the “Lanthascreen signal, sheet CDK2” value (CDK2–cyclin A; Compound 156.25 nM, raw replicates, experiment r13-r23) was 0.01317 and 0.01374, the “Lanthascreen signal, sheet CDK2” value (CDK2–cyclin A; Compound 156.25 nM, raw replicates, experiment r36-r46) was 0.01372 and 0.0133 and the “Lanthascreen signal, sheet CDK2” value (CDK2–cyclin A; Compound 156.25 nM, raw replicates, experiment r48-r58) was 0.01549 and 0.01505. The “Lanthascreen signal, sheet CDK2” value (CDK2–cyclin A; Compound 156.25 nM, raw replicates, experiment r60-r70) was 0.01961 and 0.02092 and 0.0201, the “Lanthascreen signal, sheet CDK2” value (CDK2–cyclin A; Compound 370.37 nM, experiment r25-r34) was 0.01637 and the “Lanthascreen signal, sheet CDK2” value (CDK2–cyclin A; Compound 625 nM, raw replicates, experiment r13-r23) was 0.0132 and 0.01347. For the same compound, the “Lanthascreen signal, sheet CDK2” value (CDK2–cyclin A; Compound 625 nM, raw replicates, experiment r36-r46) was 0.01352 and 0.01293, the “Lanthascreen signal, sheet CDK2” value (CDK2–cyclin A; Compound 625 nM, raw replicates, experiment r48-r58) was 0.01526 and 0.01348 and the “Lanthascreen signal, sheet CDK2” value (CDK2–cyclin A; Compound 625 nM, raw replicates, experiment r60-r70) was 0.01884 and 0.01787 and 0.01937. For the same compound, the “Lanthascreen signal, sheet CDK2” value (CDK2–cyclin A; Compound 2500 nM, raw replicates, experiment r13-r23) was 0.01229 and 0.01217, the “Lanthascreen signal, sheet CDK2” value (CDK2–cyclin A; Compound 2500 nM, raw replicates, experiment r36-r46) was 0.01331 and 0.01286 and the “Lanthascreen signal, sheet CDK2” value (CDK2–cyclin A; Compound 2500 nM, raw replicates, experiment r48-r58) was 0.01476 and 0.01465. The “Lanthascreen signal, sheet CDK2” value (CDK2–cyclin A; Compound 2500 nM, raw replicates, experiment r60-r70) was 0.01706 and 0.01739 and 0.01756, the “Lanthascreen signal, sheet CDK2” value (CDK2–cyclin A; Compound 3155.21 nM, raw replicates, experiment r1-r11) was 0.009677 and 0.009716 and the “Lanthascreen signal, sheet CDK2” value (CDK2–cyclin A; Compound 3333.33 nM, experiment r25-r34) was 0.01493. For the same compound, the “Lanthascreen signal, sheet CDK2” value (CDK2–cyclin A; Compound 10000 nM, experiment r25-r34) was 0.01253, the “Lanthascreen signal, sheet CDK2” value (CDK2–cyclin A; Compound 10000 nM, raw replicates, experiment r13-r23) was 0.01083 and 0.01088 and the “Lanthascreen signal, sheet CDK2” value (CDK2–cyclin A; Compound 10000 nM, raw replicates, experiment r36-r46) was 0.01118 and 0.01139. The “Lanthascreen signal, sheet CDK2” value (CDK2–cyclin A; Compound 10000 nM, raw replicates, experiment r48-r58) was 0.01493 and 0.01454, the “Lanthascreen signal, sheet CDK2” value (CDK2–cyclin A; Compound 10000 nM, raw replicates, experiment r60-r70) was 0.01597 and 0.01433 and 0.01526 and the “Lanthascreen signal, sheet CDK2” value (CDK2–cyclin A; Compound 10002 nM, raw replicates, experiment r1-r11) was 0.009692 and 0.009444. The IC50 (CDK2–cyclin A; Lanthascreen, average, Extended Data Fig. 8, read-out: CDK2 IC50) was > 10000 nM, the IC50 (CDK2–cyclin A; Supplementary Table 2, read-out: Lanthascreen IC50 [nM] CDK2) was > 10000 nM and the CDK12 peptide count (CDK12; [1]) was 613.534 and 654.471. The “CDK12 peptide count (DMSO-normalised)” value (CDK12; [2]) was 0.6817 and 0.676, the CDK13 peptide count (CDK13; [1]) was 281.229 and 215.265 and the “CDK13 peptide count (DMSO-normalised)” value (CDK13; [2]) was 0.4184 and 0.3308.
